Test results taken from ChEMBL document CHEMBL2434826, “Multifunctional tacrine-flavonoid hybrids with cholinergic, β-amyloid-reducing, and metal chelating properties for the treatment of Alzheimer's disease” (Eur J Med Chem, 2013).
Active and inactive are the calls of the source. The rule behind the calls is not given here.

What was measured:
[1] = molecular target: T1, Amyloid-beta precursor protein (Homo sapiens, UniProt P05067); experiment: Inhibition of amyloid beta (1 to 42) (unknown origin) self-induced aggregation at 20 uM after 48 hrs by thioflavin T fluorescence assay relative to control
[2] = molecular target: Cholinesterase (Equus caballus) (UniProt P81908); experiment: Potency index, ratio of galanthamine IC50 to compound IC50 for equine serum BuChE
[3] = molecular target: T1, Amyloid-beta precursor protein
Description: Inhibition of amyloid beta (1 to 42) (unknown origin) self-induced aggregation after 48 hrs by thioflavin T fluorescence assay

Cholinesterase = Cholinesterase (Equus caballus, UniProt P81908)
Description: Inhibition of equine serum BuChE using S-butyrylcholinesterase iodide as substrate preincubated for 6 mins followed by substrate addition by Ellmans method

[4] = system: Radical scavenging activity; experiment: Antioxidant activity assessed as DPPH radical scavenging activity at 2 mM relative to control; format: functional
Acetylcholinesterase = Acetylcholinesterase (Electrophorus electricus, UniProt O42275)
Description: Inhibition of electric eel AChE using acetylthiocholine iodide as substrate preincubated for 6 mins followed by substrate addition by Ellmans method

[5] = molecular target: Cholinesterase (Equus caballus) (UniProt P81908); experiment: Potency index, ratio of tacrine IC50 to compound IC50 for equine serum BuChE
[6] = molecular target: Acetylcholinesterase (Electrophorus electricus) (UniProt O42275); experiment: Potency index, ratio of tacrine IC50 to compound IC50 for electric eel AChE
[7] = molecular target: Acetylcholinesterase (Electrophorus electricus) (UniProt O42275); experiment: Potency index, ratio of galanthamine IC50 to compound IC50 for electric eel AChE
[8] = molecular target: Acetylcholinesterase (Electrophorus electricus) (UniProt O42275); details: 7.7 to 30.8 nM
[9] = molecular target: Cholinesterase (Equus caballus) (UniProt P81908); experiment: Competitive inhibition of equine serum BuChE using […] as substrate at 22.5 to 90 nM by Lineweaver-Burk plot analysis
[10] = Cytotoxicity against human SH-SY5Y cells assessed as survival at 25 uM after 24 hrs by MTT assay relative to control; format: cell-based; details: read-out: Survival
[11] = Cytotoxicity against human SH-SY5Y cells assessed as survival at 50 uM after 24 hrs by MTT assay relative to control; format: cell-based; details: read-out: Survival
[12] = Metal chelating activity of the compound assessed as Cu2+-complex formation in methanol at 25 uM by UV-vis spectrophotometric analysis; format: functional
[13] = Cytotoxicity against human SH-SY5Y cells assessed as survival at 10 uM after 24 hrs by MTT assay relative to control; format: cell-based; details: read-out: Survival
[14] = Metal chelating activity of the compound assessed as Fe2+-complex formation in methanol at 25 uM by UV-vis spectrophotometric analysis; format: functional
[15] = Cytotoxicity against human SH-SY5Y cells assessed as survival at 1 uM after 24 hrs by MTT assay relative to control; format: cell-based; details: read-out: Survival
[16] = Cytotoxicity against human SH-SY5Y cells assessed as survival at 5 uM after 24 hrs by MTT assay relative to control; format: cell-based; details: read-out: Survival

Sequence of Acetylcholinesterase (O42275 whole entry): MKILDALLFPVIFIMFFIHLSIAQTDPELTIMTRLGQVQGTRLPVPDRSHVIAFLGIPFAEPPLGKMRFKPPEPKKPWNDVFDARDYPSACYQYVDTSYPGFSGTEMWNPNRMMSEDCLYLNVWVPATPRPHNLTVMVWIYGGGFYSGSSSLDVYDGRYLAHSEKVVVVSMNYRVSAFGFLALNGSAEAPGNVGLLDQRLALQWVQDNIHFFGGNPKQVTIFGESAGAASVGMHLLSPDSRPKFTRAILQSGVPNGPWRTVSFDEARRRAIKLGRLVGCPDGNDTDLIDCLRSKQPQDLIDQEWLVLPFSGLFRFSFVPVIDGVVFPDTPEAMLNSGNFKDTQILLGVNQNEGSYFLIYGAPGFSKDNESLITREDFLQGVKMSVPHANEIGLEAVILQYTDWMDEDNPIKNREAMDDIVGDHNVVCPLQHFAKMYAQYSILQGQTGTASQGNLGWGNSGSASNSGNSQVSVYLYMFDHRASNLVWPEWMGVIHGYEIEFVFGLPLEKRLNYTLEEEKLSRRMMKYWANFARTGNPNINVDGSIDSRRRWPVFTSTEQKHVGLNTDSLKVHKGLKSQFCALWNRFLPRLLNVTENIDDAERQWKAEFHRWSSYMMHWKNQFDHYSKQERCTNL
Sequence of Acetylcholinesterase (Electrophorus electricus) (O42275 24-633 limits assumed): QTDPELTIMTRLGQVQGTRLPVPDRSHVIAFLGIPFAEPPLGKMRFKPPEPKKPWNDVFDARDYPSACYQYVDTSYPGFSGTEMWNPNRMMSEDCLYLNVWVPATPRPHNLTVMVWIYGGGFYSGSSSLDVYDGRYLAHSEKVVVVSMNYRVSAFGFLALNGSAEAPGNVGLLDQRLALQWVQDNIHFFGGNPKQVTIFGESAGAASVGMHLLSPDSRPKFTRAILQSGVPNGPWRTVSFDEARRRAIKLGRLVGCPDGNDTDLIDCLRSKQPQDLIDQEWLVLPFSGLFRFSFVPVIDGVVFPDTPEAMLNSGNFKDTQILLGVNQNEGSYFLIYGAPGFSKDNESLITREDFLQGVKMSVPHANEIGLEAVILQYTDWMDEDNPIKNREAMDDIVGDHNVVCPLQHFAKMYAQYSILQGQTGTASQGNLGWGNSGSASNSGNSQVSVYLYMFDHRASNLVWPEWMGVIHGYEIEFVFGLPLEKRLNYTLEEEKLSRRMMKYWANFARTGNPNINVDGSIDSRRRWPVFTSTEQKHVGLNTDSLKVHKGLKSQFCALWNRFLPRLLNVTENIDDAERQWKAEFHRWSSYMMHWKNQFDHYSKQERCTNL
Sequence of Cholinesterase (Equus caballus) (P81908 whole entry): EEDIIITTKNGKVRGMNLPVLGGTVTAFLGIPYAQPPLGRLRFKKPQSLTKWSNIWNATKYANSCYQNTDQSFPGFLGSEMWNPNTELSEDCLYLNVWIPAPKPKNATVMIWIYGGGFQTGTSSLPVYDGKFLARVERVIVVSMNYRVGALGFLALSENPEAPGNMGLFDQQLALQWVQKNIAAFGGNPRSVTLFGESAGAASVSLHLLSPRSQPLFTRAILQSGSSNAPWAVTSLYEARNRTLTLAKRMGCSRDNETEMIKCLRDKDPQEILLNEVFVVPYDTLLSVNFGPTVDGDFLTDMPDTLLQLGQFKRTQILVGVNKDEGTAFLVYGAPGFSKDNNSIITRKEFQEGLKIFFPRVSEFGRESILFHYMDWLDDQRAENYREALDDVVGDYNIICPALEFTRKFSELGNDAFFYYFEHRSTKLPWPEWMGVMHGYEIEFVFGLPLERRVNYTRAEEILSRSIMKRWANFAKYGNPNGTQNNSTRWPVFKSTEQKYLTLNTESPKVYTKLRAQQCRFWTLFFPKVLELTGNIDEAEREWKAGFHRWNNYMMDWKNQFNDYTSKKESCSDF
Sequence of Cholinesterase (P81908 whole entry): as above
T1 sequence (P05067 whole entry): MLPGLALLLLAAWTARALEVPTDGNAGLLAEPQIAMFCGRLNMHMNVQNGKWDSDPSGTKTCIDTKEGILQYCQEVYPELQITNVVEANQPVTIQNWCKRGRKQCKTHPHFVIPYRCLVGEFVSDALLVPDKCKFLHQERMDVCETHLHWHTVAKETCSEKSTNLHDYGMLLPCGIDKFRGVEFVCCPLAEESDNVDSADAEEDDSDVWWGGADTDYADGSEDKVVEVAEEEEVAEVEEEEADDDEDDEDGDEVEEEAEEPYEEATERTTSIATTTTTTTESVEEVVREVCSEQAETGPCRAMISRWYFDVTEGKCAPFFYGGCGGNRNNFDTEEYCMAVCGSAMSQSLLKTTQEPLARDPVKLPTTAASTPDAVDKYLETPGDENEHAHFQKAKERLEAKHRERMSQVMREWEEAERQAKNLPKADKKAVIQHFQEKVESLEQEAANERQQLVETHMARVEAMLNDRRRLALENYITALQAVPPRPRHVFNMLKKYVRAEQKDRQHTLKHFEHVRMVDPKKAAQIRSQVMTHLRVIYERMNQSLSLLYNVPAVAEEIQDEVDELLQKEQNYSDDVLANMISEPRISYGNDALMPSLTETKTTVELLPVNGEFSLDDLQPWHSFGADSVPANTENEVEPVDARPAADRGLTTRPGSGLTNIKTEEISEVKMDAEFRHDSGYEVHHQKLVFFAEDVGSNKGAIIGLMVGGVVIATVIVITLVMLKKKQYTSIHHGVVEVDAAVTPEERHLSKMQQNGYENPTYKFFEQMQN

Structure (SMILES): O=c1ccoc2cc(OCCCN3CCN(CCCNc4c5c(nc6ccccc46)CCCC5)CC3)ccc12
- inhibition [1]: 67.4%
- Ratio IC50 [2]: 508
- IC50 [3]: 11500 nM
- IC50 (Cholinesterase): 25.8 nM
- Activity [4]: < 36%
- IC50 (Acetylcholinesterase): 10.3 nM
- Ratio IC50 [5]: 2

Structure (SMILES): O=c1cc(-c2ccccc2)oc2cc(O)ccc12 [7-HYDROXYFLAVONE]
- inhibition [1]: 27.2%
- IC50 (Cholinesterase): > 100000 nM
- IC50 (Acetylcholinesterase): 85000 nM

Structure (SMILES): O=c1cc(-c2ccccc2)oc2cc(OCCCCCN3CCN(CCNc4c5c(nc6ccccc46)CCCC5)CC3)ccc12
- inhibition [1]: 65.4%
- IC50 [3]: 12800 nM
- IC50 (Cholinesterase): 258 nM
- Activity [4]: < 36%
- IC50 (Acetylcholinesterase): 568 nM

Structure (SMILES): COc1cc(OCCCN2CCN(CCCNc3c4c(nc5ccccc35)CCCC4)CC2)cc2occc(=O)c12
- Ratio IC50 [6]: 31
- inhibition [1]: 62%
- IC50 [3]: 12600 nM
- IC50 (Cholinesterase): 35 nM
- Ratio IC50 [7]: 318
- Activity [4]: < 36%
- IC50 (Acetylcholinesterase): 8.4 nM

Structure (SMILES): O=c1cc(-c2ccccc2)oc2cc(OCCN3CCN(CCCNc4c5c(nc6ccccc46)CCCC5)CC3)ccc12
- inhibition [1]: 70%
- IC50 [3]: 9800 nM
- IC50 (Cholinesterase): 266 nM
- Activity [4]: < 36%
- IC50 (Acetylcholinesterase): 416 nM

Structure (SMILES): O=c1cc(-c2ccc([N+](=O)[O-])cc2)oc2cc(OCCCN3CCN(CCCNc4c5c(nc6ccccc46)CCCC5)CC3)ccc12
- inhibition [1]: 61.1%
- IC50 [3]: 14100 nM
- IC50 (Cholinesterase): 460 nM
- Activity [4]: < 36%
- IC50 (Acetylcholinesterase): 75 nM

Structure (SMILES): O=c1cc(-c2ccccc2)oc2cc(OCCCCCN3CCN(CCCNc4c5c(nc6ccccc46)CCCC5)CC3)ccc12
- inhibition [1]: 62.5%
- IC50 [3]: 13200 nM
- IC50 (Cholinesterase): 423 nM
- Activity [4]: < 36%
- IC50 (Acetylcholinesterase): 594 nM

Structure (SMILES): O=c1cc(-c2ccccc2)oc2cc(OCCCCCCN3CCN(CCNc4c5c(nc6ccccc46)CCCC5)CC3)ccc12
- inhibition [1]: 63.3%
- IC50 [3]: 14200 nM
- IC50 (Cholinesterase): 289 nM
- Activity [4]: < 36%
- IC50 (Acetylcholinesterase): 717 nM

Structure (SMILES): O=c1cc(-c2ccccc2)oc2cc(OCCCN3CCN(CCNc4c5c(nc6ccccc46)CCCC5)CC3)ccc12
- inhibition [1]: 59.1%
- IC50 [3]: 13700 nM
- IC50 (Cholinesterase): 311 nM
- Activity [4]: < 36%
- IC50 (Acetylcholinesterase): 624 nM

Structure (SMILES): Nc1ccc(-c2cc(=O)c3ccc(OCCCN4CCN(CCCNc5c6c(nc7ccccc57)CCCC6)CC4)cc3o2)cc1
- inhibition [1]: 9%
- IC50 (Cholinesterase): 685 nM
- Activity [4]: < 36%
- IC50 (Acetylcholinesterase): 336 nM

Structure (SMILES): O=c1cc(-c2ccc(Cl)cc2)oc2cc(OCCCN3CCN(CCCNc4c5c(nc6ccccc46)CCCC5)CC3)ccc12
- inhibition [1]: 48.9%
- IC50 (Cholinesterase): 994 nM
- Activity [4]: < 36%
- IC50 (Acetylcholinesterase): 40.1 nM

Structure (SMILES): COc1ccc(-c2cc(=O)c3ccc(OCCCN4CCN(CCCNc5c6c(nc7ccccc57)CCCC6)CC4)cc3o2)cc1
- inhibition [1]: 10.9%
- IC50 (Cholinesterase): 655 nM
- Activity [4]: < 36%
- IC50 (Acetylcholinesterase): 417 nM

Structure (SMILES): O=c1cc(-c2ccccc2)oc2cc(OCCCCN3CCN(CCCNc4c5c(nc6ccccc46)CCCC5)CC3)ccc12
- inhibition [1]: 53.4%
- IC50 [3]: 17300 nM
- IC50 (Cholinesterase): 317 nM
- Activity [4]: < 36%
- IC50 (Acetylcholinesterase): 547 nM

Structure (SMILES): CN(C)c1ccc(-c2cc(=O)c3ccc(OCCCN4CCN(CCCNc5c6c(nc7ccccc57)CCCC6)CC4)cc3o2)cc1
- inhibition [1]: 12.2%
- IC50 (Cholinesterase): 845 nM
- Activity [4]: < 36%
- IC50 (Acetylcholinesterase): 230 nM

Structure (SMILES): O=c1cc(-c2ccccc2)oc2cc(OCCN3CCN(CCNc4c5c(nc6ccccc46)CCCC5)CC3)ccc12
- inhibition [1]: 54.1%
- IC50 [3]: 16800 nM
- IC50 (Cholinesterase): 520 nM
- Activity [4]: < 36%
- IC50 (Acetylcholinesterase): 481 nM

Structure (SMILES): O=c1cc(-c2ccccc2)oc2cc(OCCCCN3CCN(CCNc4c5c(nc6ccccc46)CCCC5)CC3)ccc12
- inhibition [1]: 53.7%
- IC50 [3]: 16400 nM
- IC50 (Cholinesterase): 197 nM
- Activity [4]: < 36%
- IC50 (Acetylcholinesterase): 268 nM

Structure (SMILES): O=c1ccoc2cc(OCCCN3CCN(CCCNc4c5c(nc6ccccc46)CCCC5)CC3)cc(O)c12
- inhibition [8]: Active
- inhibition [1]: 85.3%
- IC50 [3]: 4800 nM
- IC50 (Cholinesterase): 45 nM
- Activity [4]: < 36%
- IC50 (Acetylcholinesterase): 15.4 nM
- inhibition [9]: Active

Structure (SMILES): O=c1cc(-c2ccccc2)oc2cc(OCCCCCCN3CCN(CCCNc4c5c(nc6ccccc46)CCCC5)CC3)ccc12
- inhibition [1]: 63%
- IC50 [3]: 13500 nM
- IC50 (Cholinesterase): 414 nM
- Activity [4]: < 36%
- IC50 (Acetylcholinesterase): 848 nM

Structure (SMILES): O=c1cc(-c2ccccc2)oc2cc(OCCCN3CCN(CCCNc4c5c(nc6ccccc46)CCCC5)CC3)cc(O)c12
- viability at 24 h, 25 µM [10]: 92.7%
- inhibition [1]: 79.1%
- viability at 24 h, 50 µM [11]: 90.1%
- IC50 [3]: 6500 nM
- IC50 (Cholinesterase): 558 nM
- Activity [4]: < 36%
- IC50 (Acetylcholinesterase): 133 nM
- Activity [12]: Active
- viability at 24 h, 10 µM [13]: 94.4%
- Activity [14]: Active
- viability at 24 h, 1 µM [15]: 97.3%
- viability at 24 h, 5 µM [16]: 96.5%

Structure (SMILES): O=c1cc(-c2ccccc2)oc2cc(OCCCN3CCN(CCCNc4c5c(nc6ccccc46)CCCC5)CC3)ccc12
- inhibition [1]: 58%
- IC50 [3]: 14900 nM
- IC50 (Cholinesterase): 208 nM
- Activity [4]: < 36%
- IC50 (Acetylcholinesterase): 153 nM

Structure (SMILES): Cc1ccc(-c2cc(=O)c3ccc(OCCCN4CCN(CCCNc5c6c(nc7ccccc57)CCCC6)CC4)cc3o2)cc1
- inhibition [1]: 13.4%
- IC50 (Cholinesterase): 573 nM
- Activity [4]: < 36%
- IC50 (Acetylcholinesterase): 316 nM

Structure (SMILES): COc1cc(OCCCN2CCN(CCCNc3c4c(nc5ccccc35)CCCC4)CC2)cc2oc(-c3ccccc3)cc(=O)c12
- inhibition [1]: 68.7%
- IC50 [3]: 9600 nM
- IC50 (Cholinesterase): 360 nM
- Activity [4]: < 36%
- IC50 (Acetylcholinesterase): 57.7 nM
